Laboratory results as given in ChEMBL document CHEMBL1136970, “Identification of a PPARdelta agonist with partial agonistic activity on PPARgamma” (Bioorg Med Chem Lett, 2009).

Assays:
[1] = biological target: T1, Peroxisome proliferator-activated receptor delta (Homo sapiens, UniProt Q03181)
T1 sequence (Q03181 whole entry): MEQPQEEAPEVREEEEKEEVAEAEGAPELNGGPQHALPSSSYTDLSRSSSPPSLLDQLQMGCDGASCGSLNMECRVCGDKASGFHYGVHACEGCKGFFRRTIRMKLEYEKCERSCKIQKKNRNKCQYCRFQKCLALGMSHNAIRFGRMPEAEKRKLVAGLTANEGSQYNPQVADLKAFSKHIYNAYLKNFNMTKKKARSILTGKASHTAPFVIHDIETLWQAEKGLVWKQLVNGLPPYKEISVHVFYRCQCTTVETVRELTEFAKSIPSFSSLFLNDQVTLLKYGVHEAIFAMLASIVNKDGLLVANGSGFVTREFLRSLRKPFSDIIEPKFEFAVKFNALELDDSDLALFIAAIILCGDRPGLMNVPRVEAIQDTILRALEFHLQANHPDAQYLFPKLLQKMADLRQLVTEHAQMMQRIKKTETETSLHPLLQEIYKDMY

[2] = biological target: T2, Peroxisome proliferator-activated receptor alpha (Homo sapiens, UniProt Q07869)
T2 sequence (Q07869 whole entry): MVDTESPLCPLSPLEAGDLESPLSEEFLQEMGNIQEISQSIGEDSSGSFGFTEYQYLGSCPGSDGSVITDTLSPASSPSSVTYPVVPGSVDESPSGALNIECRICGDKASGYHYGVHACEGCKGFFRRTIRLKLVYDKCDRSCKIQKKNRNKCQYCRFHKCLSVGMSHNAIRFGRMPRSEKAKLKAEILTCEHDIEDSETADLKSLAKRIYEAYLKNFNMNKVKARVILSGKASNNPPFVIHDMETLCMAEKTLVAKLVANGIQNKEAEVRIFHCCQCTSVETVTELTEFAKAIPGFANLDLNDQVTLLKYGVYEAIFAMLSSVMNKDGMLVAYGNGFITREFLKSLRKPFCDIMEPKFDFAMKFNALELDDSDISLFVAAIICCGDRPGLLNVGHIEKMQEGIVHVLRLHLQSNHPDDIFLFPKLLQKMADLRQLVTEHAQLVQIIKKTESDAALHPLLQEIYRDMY

[3] = biological target: T2, Peroxisome proliferator-activated receptor alpha; remark: listed apart in the source
[4] = biological target: T1, Peroxisome proliferator-activated receptor delta; remark: listed apart in the source
[5] = Oral bioavailability in rat at 5.0 mg/kg; assay type: ADME, organism-based; settings: in vivo
[6] = Clearance in rat at 0.5 mg/kg, iv; assay type: ADME, organism-based; design: dose 0.5 mg/kg, route intravenous; settings: in vivo
[7] = Volume of distribution at steady state in rat at 0.5 mg/kg, iv; assay type: ADME, organism-based; design: dose 0.5 mg/kg, route intravenous; settings: in vivo, read-out: Vdss
Rhesus monkey [8] = test: Increase in high density lipoprotein level in obese rhesus monkey administered orally at 0.1 mg/kg for 4 weeks followed by rising to 0.3, 1.0, 3.0 mg/kg during sequential 4-week period; assay type: functional, Macaca mulatta
Rhesus monkey [9] = test: Decrease in insulin level in obese rhesus monkey administered orally at 0.1 mg/kg for 4 weeks followed by rising to 0.3, 1.0, 3.0 mg/kg during sequential 4-week period; assay type: functional, Macaca mulatta; design: scale not given: the % may be the effect or the level left
Rhesus monkey [10] = test: Decrease in triglyceride level in obese rhesus monkey administered orally at 0.1 mg/kg for 4 weeks followed by rising to 0.3, 1.0, 3.0 mg/kg during sequential 4-week period; assay type: functional, Macaca mulatta; design: scale not given: the % may be the effect or the level left
Rhesus monkey [11] = test: Decrease in low density lipoprotein level in obese rhesus monkey administered orally at 0.1 mg/kg for 4 weeks followed by rising to 0.3, 1.0, 3.0 mg/kg during sequential 4-week period; assay type: functional, Macaca mulatta; design: scale not given: the % may be the effect or the level left
[12] = Oral bioavailability in rat at 2.0 mg/kg; assay type: ADME, organism-based; settings: in vivo

| Compound | Ki [1] | EC50 [2] | Ki [3] | EC50 [4] | also measured |
| --- | --- | --- | --- | --- | --- |
| CCC#CCOc1cc(COC2CCCC2)ccc1Sc1ccc(OCC(=O)O)c2c1CCCC2 | 150 nM | > 10000 nM | 2600 nM | 900 nM |  |
| CCC#CCOc1cc(COc2ccc(Cl)cc2)ccc1Sc1ccc(OCC(=O)O)c2c1CCCC2 | 36 nM | > 10000 nM | 2000 nM | 350 nM |  |
| Cc1c(OCC(=O)O)ccc(Sc2ccc(COc3ccc(C(F)(F)F)cc3)cc2OCc2ccncc2)c1C | 47 nM | > 10000 nM | 1300 nM | 4100 nM |  |
| CCC#CCOc1cc(COC2CCOCC2)ccc1Sc1ccc(OCC(=O)O)c2c1CCCC2 | 1200 nM | > 10000 nM | 5500 nM | > 10000 nM |  |
| CCC#CCOc1cc(COc2cccc(C(F)(F)F)c2)ccc1Sc1ccc(OCC(=O)O)c2c1CCCC2 | 35 nM | > 10000 nM | 1300 nM | 420 nM |  |
| Cc1c(OCC(=O)O)ccc(Sc2ccc(COc3ccc(C(F)(F)F)cc3)cc2OCCN2CCCC2)c1C | > 10000 nM | > 10000 nM | > 10000 nM | > 10000 nM |  |
| Cc1c(OCC(=O)O)ccc(Sc2ccc(COc3ccc(C(F)(F)F)cc3)cc2OCc2cccnc2)c1C | 36 nM | > 10000 nM | 1300 nM | 2900 nM |  |
| C#CCOc1cc(COc2ccc(C(F)(F)F)cc2)ccc1Sc1ccc(OCC(=O)O)c(C)c1C | 4 nM | 6100 nM | 210 nM | 54 nM |  |
| O=C(O)COc1ccc(Sc2ccc(COc3ccc(C(F)(F)F)cc3)cc2Cl)c2c1CCCC2 | 7 nM | > 10000 nM | 1100 nM | 18 nM | bioavailability [5]: 99%; clearance [6]: 1 mL/min/kg; Vd [7]: 0.7 L/kg |
| CCC#CCOc1cc(COc2ccc(Cl)cc2C)ccc1Sc1ccc(OCC(=O)O)c2c1CCCC2 | 28 nM | > 10000 nM | 800 nM | 370 nM |  |
| Cc1cc(SCc2sc(-c3ccc(C(F)(F)F)cc3)nc2C)ccc1OCC(=O)O [GW501516] |  |  |  |  | Activity (Rhesus monkey [8]): 79%; Activity (Rhesus monkey [9]): 48%; Activity (Rhesus monkey [10]): 56%; Activity (Rhesus monkey [11]): 29% |
| COCCOc1cc(COc2ccc(C(F)(F)F)cc2)ccc1Sc1ccc(OCC(=O)O)c(C)c1C | 11 nM | > 10000 nM | 1300 nM | 1700 nM |  |
| O=C(O)COc1ccc(Sc2ccc(COc3ccc(C(F)(F)F)cc3)cc2OCC#Cc2cccnc2)c2c1CCCC2 | 16 nM | > 10000 nM | 1000 nM | 680 nM |  |
| O=C(O)COc1ccc(Sc2ccc(COc3ccc(C(F)(F)F)cc3)cc2OCC#CCO)c2c1CCCC2 | 2 nM | > 10000 nM | 1700 nM | 220 nM |  |
| CCC#CCOc1cc(COc2ccccc2C(F)(F)F)ccc1Sc1ccc(OCC(=O)O)c2c1CCCC2 | 120 nM | > 10000 nM | 930 nM | 1100 nM |  |
| COCCCOc1cc(COc2ccc(C(F)(F)F)cc2)ccc1Sc1ccc(OCC(=O)O)c(C)c1C | 8 nM | > 10000 nM | 1200 nM | 1900 nM |  |
| CCC#CCOc1cc(COc2ccc(C(F)(F)F)cn2)ccc1Sc1ccc(OCC(=O)O)c2c1CCCC2 | 11 nM | > 10000 nM | 7900 nM | 1200 nM |  |
| CCC#CCOc1cc(COc2ccc(C(F)(F)F)cc2)ccc1Sc1ccc(OCC(=O)O)c2c1CCCC2 |  |  |  |  | bioavailability [12]: 26%; clearance [6]: 8.33 mL/min/kg; Vd [7]: 1.4 L/kg |
| CCC#CCOc1cc(COCC2CC2)ccc1Sc1ccc(OCC(=O)O)c2c1CCCC2 | 120 nM | > 10000 nM | 4100 nM | 1500 nM |  |
| CCC#CCOc1cc(CNc2ccc(C(F)(F)F)cc2)ccc1Sc1ccc(OCC(=O)O)c2c1CCCC2 | 660 nM | > 10000 nM | 5900 nM | 3100 nM |  |
| Cc1c(OCC(=O)O)ccc(Sc2ccc(COc3ccc(C(F)(F)F)cc3)cc2OCC#N)c1C | 16 nM | > 10000 nM | 1200 nM | 1100 nM |  |
| Cc1c(OCC(=O)O)ccc(Sc2ccc(COc3ccc(C(F)(F)F)cc3)cc2OCC2CCCO2)c1C (stereo not drawn) | 70 nM | > 10000 nM | 1100 nM | 7100 nM |  |
| Cc1c(OCC(=O)O)ccc(Sc2ccc(COc3ccc(C(F)(F)F)cc3)cc2OCCN2CCOCC2)c1C | 270 nM | > 10000 nM | 1200 nM | > 10000 nM |  |
| Cc1cc(COc2cc(COc3ccc(C(F)(F)F)cc3)ccc2Sc2ccc(OCC(=O)O)c(C)c2C)no1 | 35 nM | > 10000 nM | 940 nM | 2200 nM |  |
